Data published in the NIST ThermoML archive (doi:10.1016/j.jct.2015.10.013).
Values joined by “and” are separate entries in the source; they are usually repeats but may differ in a detail not shown here. Equal values may be shown once. Numbers after ± are expanded uncertainties.

What was measured:
[1] = Crystal, Calculated from knudsen effusion weight loss
[2] = molar enthalpy of vaporization or sublimation; conditions: 298.15 K; Crystal; Static calorimetry

CN1c2ccccc2Sc2ccccc21 [10-methylphenothiazine]
[1]
Conditions | vapor or sublimation pressure
337.16 K | 9.9e-05 ± 6e-05 kPa and 9.8e-05 ± 6e-05 kPa and 9.7e-05 ± 6e-05 kPa
339.27 K | 0.000127 ± 6e-05 kPa and 0.000128 ± 6e-05 kPa and 0.000124 ± 6e-05 kPa
341.16 K | 0.000156 ± 6e-05 kPa and 0.000152 ± 6e-05 kPa
343.16 K | 0.000187 ± 6e-05 kPa and 0.000186 ± 6e-05 kPa and 0.000188 ± 6e-05 kPa
345.25 K | 0.000242 ± 6.1e-05 kPa and 0.000237 ± 6.1e-05 kPa and 0.000246 ± 6.1e-05 kPa
347.15 K | 0.000294 ± 6.1e-05 kPa and 0.000295 ± 6.1e-05 kPa and 0.000286 ± 6.1e-05 kPa
349.16 K | 0.000354 ± 6.1e-05 kPa and 0.000353 ± 6.1e-05 kPa and 0.000361 ± 6.1e-05 kPa
351.26 K | 0.000456 ± 6.2e-05 kPa and 0.000445 ± 6.2e-05 kPa and 0.00046 ± 6.2e-05 kPa
353.16 K | 0.000551 ± 6.3e-05 kPa and 0.000553 ± 6.3e-05 kPa and 0.000539 ± 6.3e-05 kPa
355.16 K | 0.000655 ± 6.4e-05 kPa and 0.000671 ± 6.5e-05 kPa
357.26 K | 0.000853 ± 6.7e-05 kPa and 0.00084 ± 6.7e-05 kPa and 0.000822 ± 6.7e-05 kPa
359.15 K | 0.001002 ± 9.3e-05 kPa and 0.001018 ± 9.4e-05 kPa and 0.00102 ± 9.4e-05 kPa

Conditions | molar enthalpy [kJ/mol]
[2] | 104 ± 2.3
